We go through one cell line from the supplement of paper PMC10307832.

What all share (assay): relative viability (nuclei count vs DMSO), 5 days (fraction); higher = more cells survive
Compound in the test “Lapatinib + Palbociclib”: CS(=O)(=O)CCNCc1ccc(-c2ccc3ncnc(Nc4ccc(OCc5cccc(F)c5)c(Cl)c4)c3c2)o1 [Lapatinib] + CC(=O)c1c(C)c2cnc(Nc3ccc(N4CCNCC4)cn3)nc2n(C2CCCC2)c1=O [Palbociclib] (partner 0.5 µM)
The method, boiled down:
(§1)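 Lung cancer cell lines in 1536-well plates got either a single drug or a fixed anchor-drug dose together with five library-drug doses (not always all listed) in √10 steps, by pin tool, on the day after seeding. Nuclei were counted after 5 days, and relative viability is the treated-to-vehicle ratio of nuclei counts. Values are medians of duplicate plates.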

Compound in the test “Wnt-C59 + Alpelisib”: CC1=NC=CC(=C1)C2=CC=C(C=C2)CC(=O)NC3=CC=C(C=C3)C4=CN=CC=C4 [Wnt-C59] + Cc1nc(NC(=O)N2CCC[C@H]2C(N)=O)sc1-c1ccnc(C(C)(C)C(F)(F)F)c1 [Alpelisib] (partner 2 µM)
The method in brief: as §1

Compound in the test “Lapatinib + Vorinostat”: CS(=O)(=O)CCNCc1ccc(-c2ccc3ncnc(Nc4ccc(OCc5cccc(F)c5)c(Cl)c4)c3c2)o1 [Lapatinib] + O=C(CCCCCCC(=O)Nc1ccccc1)NO [Vorinostat] (partner 1 µM)
The method, boiled down:
as §1

Compound in the test “Lapatinib + Bortezomib”: CS(=O)(=O)CCNCc1ccc(-c2ccc3ncnc(Nc4ccc(OCc5cccc(F)c5)c(Cl)c4)c3c2)o1 [Lapatinib] + CC(C)C[C@H](NC(=O)[C@H](Cc1ccccc1)NC(=O)c1cnccn1)B(O)O [Bortezomib] (partner 0.002 µM)
The method, boiled down: as §1

In the case of UMC-11, the relative viability came to 0.391 with Lapatinib + Palbociclib (first compound 0.02 µM); 0.347 with Lapatinib + Palbociclib (first compound 0.06325 µM); 0.301 with Lapatinib + Palbociclib (first compound 0.2 µM); 0.282 in the test with Lapatinib + Palbociclib (first compound 0.6325 µM); 0.27 with Lapatinib + Palbociclib (first compound 2 µM); 1.08 with Wnt-C59 + Alpelisib (first compound 0.001 µM). Also, the relative viability with Wnt-C59 + Alpelisib (first compound 0.01 µM) worked out at 0.978; with Wnt-C59 + Alpelisib (first compound 0.03162 µM), 1.07; in the test with Wnt-C59 + Alpelisib (first compound 0.1 µM), 1.01; with Lapatinib + Vorinostat (first compound 0.02 µM), 0.42; with Lapatinib + Vorinostat (first compound 0.06325 µM) it was 0.384; with Lapatinib + Vorinostat (first compound 0.2 µM) it was 0.39. The relative viability was 0.367 in the test with Lapatinib + Vorinostat (first compound 0.6325 µM); 0.321 with Lapatinib + Vorinostat (first compound 2 µM); 0.838 with Lapatinib + Bortezomib (first compound 0.02 µM); 0.705 with Lapatinib + Bortezomib (first compound 0.06325 µM); 0.852 with Lapatinib + Bortezomib (first compound 0.2 µM); 0.798 in the test with Lapatinib + Bortezomib (first compound 0.6325 µM). Further, in the test with Lapatinib + Bortezomib (first compound 2 µM), the relative viability turned out to be 0.665.
